We go through one compound from US20220062165A1, “COMPOSITIONS AND METHODS FOR INTRANASAL DELIVERY OF PREGNENOLONE” (M et P Pharma AG, priority 2018, published 2022).

What all share (parameters): species or system rat
The test system of experiment [1] is extracellular acetylcholine levels in the amygdala. Put plainly: In vivo microdialysis after lateralized intranasal administration (one nostril), amygdala. The following applies: 5 μl of 11.2 mg/mL gel in one nostril, vehicle in the other; anesthetized rats; n=10. The text has this: Subjects. A total number of 10 adult male Wistar rats 3-4 months of age and weighting between 400 and 500 grams, at the time of surgery, were obtained from the local animal facility (Tierversuchsanlage, University of Dusseldorf, Germany). They were grouped 4 per cage (Makrolon cage, type IV, 60.0×20.0×38.0 centimeter), and separated into individual cases after the surgery. They were housed under a reversed light-dark cycle (light off from 7 after midnight (AM) to 7 post meridiem (PM)), with free access to food and water. […] After two weeks of adaptation, animals underwent microdialysis as described below. All experiments were carried out in accordance with the European Communities Council Directive (86/609/EEC) on animal welfare, and approved by the German Animal Protection Law Authorities—LANUV Nordrhein-Westfalen.
Surgery. Rats underwent implantation of microdialysis probes into specific brain areas. They were anesthetized with a mixture of ketamine hydrochloride (90.0 milligram/kilogram (mg/kg); Pharmacia & Upjohn) and xylazine hydrochloride (8.0 mg/kg; Bayer) and placed in a stereotaxic frame (David Kopf Instruments). […]
Microdialysis. […] The animal was placed in an acrylic box (45×25×22 centimeter), and the body temperature was monitored and held stable at 36.5±0.5 degrees Celsius by atemperature controller (CMA/150) and a heating pad. […]

In experiment [2] the test system is extracellular acetylcholine levels in the frontal cortex. Put plainly: In vivo microdialysis after intranasal administration in both nostrils, frontal cortex. The following applies: 5 μl each in both nostrils. How it is done: (§1) Acetylcholine concentration values are presented as % of baseline with six baseline samples taken as 100 (mean+SE). Pregnenolone was administrated intranasally at a volume of 5 μl each in both nostrils, at the 0 minute time point. Time is presented in the x-axis and mean and standard error of acetylcholine concentration (expressed as % of baseline) are presented in the y-axis. Filled black circles represent the vehicle, unfilled white circles represent the 5.6 mg/mL pregnenolone dose and the triangle represents the 11.2 mg/mL pregnenolone dose.
(§2) The semipermeable membrane allows molecules smaller than 6 KDa to pass through. The length of the active membrane is 2 mm for the frontal cortex and amygdala, and 4 mm for the hippocampus.
(§3) Microdialysis. Prior the microdialysis process, the animals were anesthetized with Urethane intraperitoneal injection. (1.25 gram/kilogram, Sigma Aldrich). To allow fluid supply (perfusion liquid) (Ringer's solution 0.2 milliliter every 20 minutes) without physical contact with the animal, a catheter was placed into the intraperitoneal cavity. The animal was placed in an acrylic box (45×25×22 centimeter), and the body temperature was monitored and held stable at 36.5±0.5 degrees Celsius by atemperature controller (CMA/150) and a heating pad. […]

Experiment [3] concerns extracellular acetylcholine levels in the hippocampus. The experiment in a line: In vivo microdialysis after intranasal administration in both nostrils, hippocampus. The conditions noted are these: 5 μl each in both nostrils. As to the method:
as §1, §2, §3

The test system of experiment [4] is extracellular acetylcholine levels in the amygdala. The experiment in a line: In vivo microdialysis after intranasal administration in both nostrils, amygdala. The conditions noted are these: 11.2 mg/mL, 5 μl each in both nostrils; n=4. How it is done: as §1, §2, §3

The structures appear in SMILES notation. Entries after “also recorded” stand apart in the source; their conditions may differ.

Take `CC(=O)[C@H]1CC[C@H]2[C@@H]3CC=C4C[C@@H](O)CC[C@]4(C)[C@H]3CC[C@]12C` [pregnenolone]: in experiment [1], the “extracellular acetylcholine in the amygdala contralateral to the treated nostril” value is given as “not in the contralateral amygdala”. Further, the “extracellular acetylcholine in the amygdala ipsilateral to the treated nostril” value in experiment [1] is listed as “Higher increase in the ipsilateral amygdala of extracellular level of acetylcholine; also recorded: increases acetylcholine in the amygdala ipsilateral to this nostril”. Moreover, the “effect on acetylcholine release in the frontal cortex” value in experiment [2] (5.6 mg/mL, n=5) was “Neither pregnenolone (PREG) at dosage 5.6 mg/mL or 11.2 mg/mL had an effect”; in experiment [2] (11.2 mg/mL, n=6) it was “Neither pregnenolone (PREG) at dosage 5.6 mg/mL or 11.2 mg/mL had an effect”. Further, the “effect on acetylcholine release in the hippocampus” value in experiment [3] (5.6 mg/mL, n=7) was “had no effect”; in experiment [3] (11.2 mg/mL, n=5) it was “had an effect on acetylcholine release in the hippocampus, but this effect was not significant”. Besides, in experiment [4], the “effect on acetylcholine (ACh) release in the amygdala” value was “induced an increase in acetylcholine release in the amygdala”.
